{"source": "patent US10428063B2", "about": "(Bayer Pharma Aktiengesellschaft, priority 2015, dated 2019)"}
{"molecular_target": "catalytic domain of human Bub1 (amino acids 704-1085) (Homo sapiens (Human), UniProt O43683)", "sequence (O43683 704-1085)": "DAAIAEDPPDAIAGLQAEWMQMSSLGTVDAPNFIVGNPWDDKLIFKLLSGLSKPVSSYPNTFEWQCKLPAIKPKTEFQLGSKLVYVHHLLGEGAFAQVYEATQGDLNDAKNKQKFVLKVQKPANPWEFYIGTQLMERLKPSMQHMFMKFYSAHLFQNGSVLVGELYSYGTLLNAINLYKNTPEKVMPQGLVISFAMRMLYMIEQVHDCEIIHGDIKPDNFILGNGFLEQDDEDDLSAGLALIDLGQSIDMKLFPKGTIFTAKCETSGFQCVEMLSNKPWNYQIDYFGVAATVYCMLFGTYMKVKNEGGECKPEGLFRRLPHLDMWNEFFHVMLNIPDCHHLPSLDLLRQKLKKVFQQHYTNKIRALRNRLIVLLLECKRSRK", "assay": "Bub1 kinase assay (TR-FRET)", "type": "biochemical", "details": "10 μM ATP, 1 μM peptide substrate, recombinant catalytic domain of human Bub1, read-out: Bub1 kinase assay median IC50", "description": "Bub1-inhibitory activities of compounds described in the present invention were quantified using a time-resolved fluorescence energy transfer (TR-FRET) kinase assay which measures phosphorylation of the synthetic peptide Biotin-Ahx-VLLPKKSFAEPG (C-terminus in amide form), purchased from e.g. Biosyntan (Berlin, Germany) by the (recombinant) catalytic domain of human Bub1 (amino acids 704-1085), expressed in Hi5 insect cells with an N-terminal His6-tag and purified by affinity- (Ni-NTA) and size exclusion chromatography.\nIn a typical assay 11 different concentrations of each compound (0.1 nM, 0.33 nM, 1.1 nM, 3.8 nM, 13 nM, 44 nM, 0.15 μM, 0.51 μM, 1.7 μM, 5.9 μM and 20 μM) were tested in duplicate within the same microtiter plate. To this end, 100-fold concentrated compound solutions (in DMSO) were previously prepared by serial dilution (1:3.4) of 2 mM stocks in a clear low volume 384-well source microtiter plate (Greiner Bio-One, Frickenhausen, Germany), from which 50 nl of compounds were transferred into a black low volume test microtiter plate from the same supplier. Subsequently, 2 μl of Bub1 (the final concentration of Bub1 was adjusted depending on the activity of the enzyme lot in order to be within the linear dynamic range of the assay: typically ˜200 ng/ml were used) in aqueous assay buffer [50 mM Tris/HCl pH 7.5, 10 mM magnesium chloride (MgCl2), 200 mM potassium chloride (KCl), 1.0 mM dithiothreitol (DTT), 0.1 mM sodium ortho-vanadate, 1% (v/v) glycerol, 0.01% (w/v) bovine serum albumine (BSA), 0.005% (v/v) Trition X-100 (Sigma), 1× Complete EDTA-free protease inhibitor mixture (Roche)] were added to the compounds in the test plate and the mixture was incubated for 15 min at 22° C. to allow pre-equilibration of the putative enzyme-inhibitor complexes before the start of the kinase reaction, which was initiated by the addition of 3 μl 1.67-fold concentrated solution (in assay buffer) of adenosine-tri-phosphate (ATP, 10 μM final concentration) and peptide substrate (1 μM final concentration). The resulting mixture (5 μl final volume) was incubated at 22° C. during 60 min., and the reaction was stopped by the addition of 5 μl of an aqueous EDTA-solution (50 mM EDTA, in 100 mM HEPES pH 7.5 and 0.2% (w/v) bovine serum albumin) which also contained the TR-FRET detection reagents (0.2 μM streptavidin-XL665 [Cisbio Bioassays, Codolet, France] and 1 nM anti-phosho-Serine antibody [Merck Millipore, cat. #35-002] and 0.4 nM LANCE EU-W1024 labeled anti-mouse IgG antibody [Perkin-Elmer, product no. AD0077, alternatively a Terbium-cryptate-labeled anti-mouse IgG antibody from Cisbio Bioassays can be used]). The stopped reaction mixture was further incubated 1 h at 22° C. in order to allow the formation of complexes between peptides and detection reagents. Subsequently, the amount of product was evaluated by measurement of the resonance energy transfer from the Eu-chelate-antibody complex recognizing the Phosphoserine residue to the streptavidin-XL665 bound to the biotin moiety of the peptide. To this end, the fluorescence emissions at 620 nm and 665 nm after excitation at 330-350 nm were measured in a TR-FRET plate reader, e.g. a Rubystar or Pherastar (both from BMG Labtechnologies, Offenburg, Germany) or a Viewlux (Perkin-Elmer) and the ratio of the emissions (665 nm/622 nm) was taken as indicator for the amount of phosphorylated substrate. The data were normalised using two sets of control wells for high- (=enzyme reaction without inhibitor=0%=Minimum inhibition) and low- (=all assay components without enzyme=100%=Maximum inhibition) Bub1 activity. IC50 values were calculated by fitting the normalized inhibition data to a 4-parameter logistic equation (Minimum, Maximum, IC50, Hill; Y=Max+(Min−Max)/(1+(X/IC50)Hill)).", "units": {"IC50": "nM"}}
{"smiles": "CCn1c2c(c(Nc3ccccc3)c1-c1ccnc(NC(C)=O)c1)C(=O)NCC2", "note": "[Example 15, N-{4-[1-ethyl-4-oxo-3-(phenylamino)-4,5,6,7-tetrahydro-1H-pyrrolo[3,2-c]pyridin-2-yl]pyridin-2-yl}acetamide]", "IC50": 79}
{"smiles": "O=c1[nH]ccc2[nH]c(-c3ccncc3F)c(Nc3ccccc3)c12", "note": "[Example 16, 2-(3-fluoropyridin-4-yl)-3-(phenylamino)-1,5-dihydro-4H-pyrrolo[3,2-c]pyridin-4-one]", "IC50": 19.1}
{"smiles": "CN1CCc2[nH]c(-c3ccncc3F)c(Nc3ccccc3)c2C1=O", "note": "[Example 17, 2-(3-fluoropyridin-4-yl)-5-methyl-3-(phenylamino)-1,5,6,7-tetrahydro-4H-pyrrolo[3,2-c]pyridin-4-one]", "IC50": 8.7}
{"smiles": "O=C1NCCc2[nH]c(-c3ccncc3F)c(Nc3ccccc3)c21", "note": "[Example 18, 2-(3-fluoropyridin-4-yl)-3-(phenylamino)-1,5,6,7-tetrahydro-4H-pyrrolo[3,2-c]pyridin-4-one]", "IC50": 11.5}
{"smiles": "CCNC(=O)Nc1cc(-c2[nH]c3c(c2Nc2ccccc2)C(=O)NCC3)ccn1", "note": "[Example 19, 1-ethyl-3-{4-[4-oxo-3-(phenylamino)-4,5,6,7-tetrahydro-1H-pyrrolo[3,2-c]pyridin-2-yl]pyridin-2-yl}urea]", "IC50": 19.5}
{"smiles": "CN1CCc2[nH]c(-c3ccncc3)c(Nc3ccccc3)c2C1=O", "note": "[Example 20, 5-methyl-3-(phenylamino)-2-(pyridin-4-yl)-1,5,6,7-tetrahydro-4H-pyrrolo[3,2-c]pyridin-4-one]", "IC50": 13.4}
{"smiles": "CN1CCc2[nH]c(-c3ccnc(N)c3)c(Nc3ccccc3)c2C1=O", "note": "[Example 21, 2-(2-aminopyridin-4-yl)-5-methyl-3-(phenylamino)-1,5,6,7-tetrahydro-4H-pyrrolo[3,2-c]pyridin-4-one]", "IC50": 170}
{"smiles": "COc1cnccc1-c1[nH]c2c(c1Nc1ccccc1)C(=O)N(C)CC2", "note": "[Example 22, 2-(3-methoxypyridin-4-yl)-5-methyl-3-(phenylamino)-1,5,6,7-tetrahydro-4H-pyrrolo[3,2-c]pyridin-4-one]", "IC50": 26.9}
{"smiles": "CC(=O)Nc1cc(-c2[nH]c3c(c2Nc2ccccc2)C(=O)N(C)CC3)ccn1", "note": "[Example 23]", "IC50": 23.2}
{"smiles": "CN1CCc2[nH]c(-c3ccnc(NC(=O)C4CC4)c3)c(Nc3ccccc3)c2C1=O", "note": "[Example 24]", "IC50": 15.3}
{"smiles": "CN1CCc2[nH]c(-c3ccncc3OCCO)c(Nc3ccccc3)c2C1=O", "note": "[Example 26, 2-[3-(2-hydroxyethoxy)pyridin-4-yl]-5-methyl-3-(phenylamino)-1,5,6,7-tetrahydro-4H-pyrrolo[3,2-c]pyridin-4-one]", "IC50": 47.6}
{"smiles": "CN1CCc2[nH]c(-c3ccncc3OCC3CC3)c(Nc3ccccc3)c2C1=O", "note": "[Example 27, 2-[3-(cyclopropylmethoxy)pyridin-4-yl]-5-methyl-3-(phenylamino)-1,5,6,7-tetrahydro-4H-pyrrolo[3,2-c]pyridin-4-one]", "IC50": 21.7}
{"smiles": "CCCOc1cnccc1-c1[nH]c2c(c1Nc1ccccc1)C(=O)N(C)CC2", "note": "[Example 28, 5-methyl-3-(phenylamino)-2-(3-propoxypyridin-4-yl)-1,5,6,7-tetrahydro-4H-pyrrolo[3,2-c]pyridin-4-one]", "IC50": 51.6}
{"smiles": "CN1CCc2[nH]c(-c3ccncc3OCC(F)F)c(Nc3ccccc3)c2C1=O", "note": "[Example 29, 2-[3-(2,2-difluoroethoxy)pyridin-4-yl]-5-methyl-3-(phenylamino)-1,5,6,7-tetrahydro-4H-pyrrolo[3,2-c]pyridin-4-one]", "IC50": 70.8}
{"smiles": "CN1CCc2[nH]c(-c3ccncc3OCC(F)(F)F)c(Nc3ccccc3)c2C1=O", "note": "[Example 30, 5-methyl-3-(phenylamino)-2-[3-(2,2,2-trifluoroethoxy)pyridin-4-yl]-1,5,6,7-tetrahydro-4H-pyrrolo[3,2-c]pyridin-4-one]", "IC50": 84.3}
{"smiles": "COCCOc1cnccc1-c1[nH]c2c(c1Nc1ccccc1)C(=O)N(C)CC2", "note": "[Example 31, 2-[3-(2-methoxyethoxy)pyridin-4-yl]-5-methyl-3-(phenylamino)-1,5,6,7-tetrahydro-4H-pyrrolo[3,2-c]pyridin-4-one]", "IC50": 9.93}
{"smiles": "CN1CCc2[nH]c(-c3ccncc3OCc3ccccc3)c(Nc3ccccc3)c2C1=O", "note": "[Example 32, 2-[3-(benzyloxy)pyridin-4-yl]-5-methyl-3-(phenylamino)-1,5,6,7-tetrahydro-4H-pyrrolo[3,2-c]pyridin-4-one]", "IC50": 41.6}
{"smiles": "CN1CCc2[nH]c(-c3ccncc3OCCC(F)(F)F)c(Nc3ccccc3)c2C1=O", "note": "[Example 33, 5-methyl-3-(phenylamino)-2-[3-(3,3,3-trifluoropropoxy)pyridin-4-yl]-1,5,6,7-tetrahydro-4H-pyrrolo[3,2-c]pyridin-4-one]", "IC50": 51.8}
{"smiles": "CN1CCc2[nH]c(-c3ccncc3OC[C@H]3CCOC3)c(Nc3ccccc3)c2C1=O", "note": "[Example 34, 5-methyl-3-(phenylamino)-2-{3-[(3S)-tetrahydrofuran-3-ylmethoxy]pyridin-4-yl}-1,5,6,7-tetrahydro-4H-pyrrolo[3,2-c]pyridin-4-one]", "IC50": 22.5}
{"smiles": "CN1CCc2[nH]c(-c3ccncc3OCCC(C)(C)C)c(Nc3ccccc3)c2C1=O", "note": "[Example 35, 2-[3-(3,3-dimethylbutoxy)pyridin-4-yl]-5-methyl-3-(phenylamino)-1,5,6,7-tetrahydro-4H-pyrrolo[3,2-c]pyridin-4-one]", "IC50": 85.9}
{"smiles": "CN1CCc2[nH]c(-c3ccnc4[nH]cnc34)c(Nc3ccccc3)c2C1=O", "note": "[Example 36, 2-(3H-imidazo[4,5-b]pyridin-7-yl)-5-methyl-3-(phenylamino)-1,5,6,7-tetrahydro-4H-pyrrolo[3,2-c]pyridin-4-one]", "IC50": 34.8}
{"smiles": "O=C1NCCc2[nH]c(-c3ccncc3OCC3CC3)c(Nc3ccc(F)c(F)c3)c21", "note": "[Example 37, 2-[3-(cyclopropylmethoxy)pyridin-4-yl]-3-[(3,4-difluorophenyl)amino]-1,5,6,7-tetrahydro-4H-pyrrolo[3,2-c]pyridin-4-one]", "IC50": 59.8}
{"smiles": "O=C1NCCc2[nH]c(-c3ccncc3OCC3CC3)c(Nc3ccc(F)cc3)c21", "note": "[Example 38, 2-[3-(cyclopropylmethoxy)pyridin-4-yl]-3-[(4-fluorophenyl)amino]-1,5,6,7-tetrahydro-4H-pyrrolo[3,2-c]pyridin-4-one]", "IC50": 56.1}
{"smiles": "O=C1NCCc2[nH]c(-c3ccncc3OCC3CC3)c(Nc3cccc(F)c3)c21", "note": "[Example 39, 2-[3-(cyclopropylmethoxy)pyridin-4-yl]-3-[(3-fluorophenyl)amino]-1,5,6,7-tetrahydro-4H-pyrrolo[3,2-c]pyridin-4-one]", "IC50": 24.1}
{"smiles": "CN1CCc2[nH]c(-c3ccnc(NC(=O)[C@@H]4C[C@@H]4F)c3)c(Nc3ccccc3)c2C1=O", "note": "[Example 40, (1S,2S)-2-fluoro-N-{4-[5-methyl-4-oxo-3-(phenylamino)-4,5,6,7-tetrahydro-1H-pyrrolo[3,2-c]pyridin-2-yl]pyridin-2-yl}cyclopropanecarboxamide]", "IC50": 28.1}
{"smiles": "O=C1NCCc2[nH]c(-c3ccncc3OCC(F)F)c(Nc3cccc(F)c3)c21", "note": "[Example 41, 2-[3-(2,2-difluoroethoxy)pyridin-4-yl]-3-[(3-fluorophenyl)amino]-1,5,6,7-tetrahydro-4H-pyrrolo[3,2-c]pyridin-4-one]", "IC50": 36.8}
{"smiles": "O=C1NCCc2[nH]c(-c3ccncc3OCC(F)F)c(Nc3ccc(F)cc3)c21", "note": "[Example 42, 2-[3-(2,2-difluoroethoxy)pyridin-4-yl]-3-[(4-fluorophenyl)amino]-1,5,6,7-tetrahydro-4H-pyrrolo[3,2-c]pyridin-4-one]", "IC50": 111}
